Drawing on BindingDB's records for doi:10.1016/S1074-5521(00)00104-6 (Axys Pharmaceutical, 2000), this text covers Ki for four molecules.

Common to all, as to test: Enzyme Assay and Determination of the Inhibition Constants
What all share (conditions): pH 7.4; 22 °C

One assay deals with Coagulation factor X (Homo sapiens, UniProt P00742). As for the experimental part: (§1) Each enzyme was assayed with a set of different concentrations of each inhibitor. […] Ki(apparent) values were calculated from enzyme velocity curves using the software package BatchKi (BioKin Ltd, Madison, WI). These apparent inhibition constants were then converted to Ki values by assuming competitive inhibition and using the formula Ki = Ki(apparent)/(1 + S/Km).

Assay [1] deals with Urokinase-type plasminogen activator (Homo sapiens, UniProt P00749). The protocol:
as §1

Assay [2] addresses Tissue-type plasminogen activator (Homo sapiens, UniProt P00750). As for the experimental part:
as §1

Another assay has as its target Prothrombin (Homo sapiens, UniProt P00734). As for the experimental part:
as §1

The target of the next assay is Tryptase beta-2 (Homo sapiens, UniProt P20231). The protocol: as §1
Tryptase beta-2, sequence (P20231 as listed by the source): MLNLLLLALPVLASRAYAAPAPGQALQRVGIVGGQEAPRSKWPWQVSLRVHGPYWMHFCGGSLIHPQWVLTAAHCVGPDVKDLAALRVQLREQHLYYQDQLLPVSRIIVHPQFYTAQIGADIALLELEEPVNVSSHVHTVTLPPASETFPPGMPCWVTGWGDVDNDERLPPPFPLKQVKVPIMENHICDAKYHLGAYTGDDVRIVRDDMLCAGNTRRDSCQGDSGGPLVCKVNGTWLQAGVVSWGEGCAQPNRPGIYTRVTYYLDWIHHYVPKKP

Coagulation factor X, sequence (P00742 41-179 limits assumed): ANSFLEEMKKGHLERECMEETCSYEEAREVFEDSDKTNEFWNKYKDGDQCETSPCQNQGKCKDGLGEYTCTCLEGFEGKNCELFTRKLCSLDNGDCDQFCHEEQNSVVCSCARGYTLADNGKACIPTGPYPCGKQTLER
Coagulation factor X, sequence (P00742 235-488 limits assumed): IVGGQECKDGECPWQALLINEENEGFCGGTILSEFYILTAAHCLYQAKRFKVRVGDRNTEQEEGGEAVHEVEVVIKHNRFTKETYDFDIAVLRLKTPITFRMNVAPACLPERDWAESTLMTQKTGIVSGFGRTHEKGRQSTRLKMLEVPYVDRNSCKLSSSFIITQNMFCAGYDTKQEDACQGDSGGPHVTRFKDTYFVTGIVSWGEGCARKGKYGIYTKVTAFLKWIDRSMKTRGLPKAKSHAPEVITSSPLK
Tissue-type plasminogen activator, sequence (P00750 whole entry): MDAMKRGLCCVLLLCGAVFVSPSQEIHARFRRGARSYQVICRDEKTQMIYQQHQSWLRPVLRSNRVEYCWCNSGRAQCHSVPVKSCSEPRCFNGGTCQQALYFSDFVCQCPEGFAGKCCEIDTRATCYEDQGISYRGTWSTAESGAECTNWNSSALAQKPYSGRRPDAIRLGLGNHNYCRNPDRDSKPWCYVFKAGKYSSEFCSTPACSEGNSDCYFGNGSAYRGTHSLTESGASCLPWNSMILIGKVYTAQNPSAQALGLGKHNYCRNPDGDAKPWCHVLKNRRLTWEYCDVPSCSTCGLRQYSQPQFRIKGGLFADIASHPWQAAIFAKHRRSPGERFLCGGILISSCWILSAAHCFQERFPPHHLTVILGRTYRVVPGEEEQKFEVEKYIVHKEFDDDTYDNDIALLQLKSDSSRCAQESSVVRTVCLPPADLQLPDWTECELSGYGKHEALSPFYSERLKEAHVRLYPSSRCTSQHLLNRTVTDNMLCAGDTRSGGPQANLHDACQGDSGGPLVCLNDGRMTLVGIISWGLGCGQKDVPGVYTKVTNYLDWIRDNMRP

As a reminder, the Ki is a measure of affinity in units of concentration, obtained from inhibition or displacement. A low value points to tighter binding. The molecule `N=C(N)c1ccccc1` [Benzamidine] yielded a Ki on Coagulation factor X of 110 µM.

For `N=C(N)c1cc2ccccc2s1` [Benzo[b]thiophene-2-carboxamidine], the Ki in assay [1] came to 2.3 µM; in assay [2] it was 15 µM; on Prothrombin, 58 µM; at Coagulation factor X, 21 µM; at Tryptase beta-2 it was 9.9 µM.

Regarding `N=C(N)c1cc2c(I)cccc2s1` [CA-01], the inhibition constant (Ki) in assay [2] turned out to be 16.8 µM; on Coagulation factor X it was 30 µM; on Tryptase beta-2, 1.5 µM.

Take `N=C(N)c1cc2cccnc2s1` [[amino(thieno[2,3-b]pyridin-2-yl)methylidene]azanium]: the Ki in assay [2] stood at 1800 µM; on Prothrombin, 1600 µM; at Coagulation factor X it was 360 µM; on Tryptase beta-2, 34 µM.
